In US20140296216A1, “PYRIMIDO[4,5-D]PYRIMIDINYL COMPOUNDS, PHARMACEUTICAL COMPOSITIONS AND USES THEREOF” (GUANGZHOU INSTITUTE OF BIOMEDICINE AND HEALTH, CHINESE …, priority 2011, published 2014):

Tests used:
EGFRL858R = EGFRL858R (Homo sapiens, UniProt P00533, L858R); test: In vitro enzymatic activity assay (Z'-LYTE), EGFR L858R; assay type: biochemical; conditions: Z'-LYTE FRET peptide assay; read-out: EGFRL858R kinase activity (IC50)
Source text: (§1) In vitro enzymatic activity assay: using Z′-LYTE™ technology (detect fluorescence, coupled-enzyme format, based on the differential sensitivity of phosphorylated and non-phosphorylated peptides to proteolytic cleavage), based on FRET, using Z′ LYTE™ FRET peptide substrate, detect the activity of compounds against enzymatic. […] After one hour, site specific protease which can recognize and cleaves non-phosphorylated FRET-peptide. After another hour, using an excitation wavelength of 400 nm excites, then detect the […] at 445 nm and 520 nm.

EGFR T790M kinase = molecular target: T1, EGFR T790M kinase (Homo sapiens, UniProt P00533, T790M); test: In vitro enzymatic activity assay (Z'-LYTE), EGFR T790M; assay type: biochemical; conditions: Z'-LYTE FRET peptide assay; read-out: EGFRT790M kinase activity (IC50)
T1 construct: purchased invitrogen PV4803
T1 sequence (P00533 25-1210 T790M): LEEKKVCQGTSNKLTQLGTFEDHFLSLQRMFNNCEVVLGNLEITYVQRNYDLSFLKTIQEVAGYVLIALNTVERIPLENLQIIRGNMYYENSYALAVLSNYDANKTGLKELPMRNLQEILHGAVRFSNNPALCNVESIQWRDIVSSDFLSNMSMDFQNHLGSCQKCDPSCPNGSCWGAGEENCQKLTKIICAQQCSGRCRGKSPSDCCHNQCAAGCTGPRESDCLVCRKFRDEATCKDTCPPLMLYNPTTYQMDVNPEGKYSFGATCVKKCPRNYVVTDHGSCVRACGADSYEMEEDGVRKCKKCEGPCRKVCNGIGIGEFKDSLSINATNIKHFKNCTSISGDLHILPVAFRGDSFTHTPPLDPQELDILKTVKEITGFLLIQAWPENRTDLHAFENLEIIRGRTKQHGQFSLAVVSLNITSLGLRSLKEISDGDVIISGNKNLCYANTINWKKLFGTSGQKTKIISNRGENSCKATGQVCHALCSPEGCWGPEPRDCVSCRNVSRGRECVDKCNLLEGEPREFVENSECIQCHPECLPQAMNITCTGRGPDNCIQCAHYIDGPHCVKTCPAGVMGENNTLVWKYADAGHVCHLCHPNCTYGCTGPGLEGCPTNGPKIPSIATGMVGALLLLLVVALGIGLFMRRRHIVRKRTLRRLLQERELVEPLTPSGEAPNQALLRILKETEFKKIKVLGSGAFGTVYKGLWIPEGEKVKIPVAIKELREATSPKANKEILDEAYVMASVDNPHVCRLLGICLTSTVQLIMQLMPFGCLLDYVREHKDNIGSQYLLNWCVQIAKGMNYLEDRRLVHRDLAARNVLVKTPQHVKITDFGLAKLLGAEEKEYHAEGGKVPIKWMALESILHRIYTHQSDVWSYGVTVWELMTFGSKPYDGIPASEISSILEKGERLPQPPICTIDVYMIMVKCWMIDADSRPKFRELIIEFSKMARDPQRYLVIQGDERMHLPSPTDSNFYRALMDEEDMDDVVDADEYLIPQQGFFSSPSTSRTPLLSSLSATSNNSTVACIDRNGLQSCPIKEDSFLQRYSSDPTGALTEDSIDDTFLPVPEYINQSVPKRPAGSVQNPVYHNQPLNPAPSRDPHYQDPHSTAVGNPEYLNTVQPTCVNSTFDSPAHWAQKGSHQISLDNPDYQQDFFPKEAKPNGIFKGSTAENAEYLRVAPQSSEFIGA
Source text: as §1

[1] = tested on: A431 (Human epidermal carcinoma, EGFR high expression); test: Cell proliferation by MTT, A431; assay type: cell-based; conditions: A-431, read-out: A431 50% inhibitory concentration (IC50), 72 h
EGFRL861Q = EGFRL861Q (Homo sapiens, UniProt P00533, L861Q); test: In vitro enzymatic activity assay (Z'-LYTE), EGFR L861Q; assay type: biochemical; conditions: Z'-LYTE FRET peptide assay; read-out: EGFRL861Q kinase activity (IC50)
EGFRL861Q, sequence (P00533 25-1210 L861Q): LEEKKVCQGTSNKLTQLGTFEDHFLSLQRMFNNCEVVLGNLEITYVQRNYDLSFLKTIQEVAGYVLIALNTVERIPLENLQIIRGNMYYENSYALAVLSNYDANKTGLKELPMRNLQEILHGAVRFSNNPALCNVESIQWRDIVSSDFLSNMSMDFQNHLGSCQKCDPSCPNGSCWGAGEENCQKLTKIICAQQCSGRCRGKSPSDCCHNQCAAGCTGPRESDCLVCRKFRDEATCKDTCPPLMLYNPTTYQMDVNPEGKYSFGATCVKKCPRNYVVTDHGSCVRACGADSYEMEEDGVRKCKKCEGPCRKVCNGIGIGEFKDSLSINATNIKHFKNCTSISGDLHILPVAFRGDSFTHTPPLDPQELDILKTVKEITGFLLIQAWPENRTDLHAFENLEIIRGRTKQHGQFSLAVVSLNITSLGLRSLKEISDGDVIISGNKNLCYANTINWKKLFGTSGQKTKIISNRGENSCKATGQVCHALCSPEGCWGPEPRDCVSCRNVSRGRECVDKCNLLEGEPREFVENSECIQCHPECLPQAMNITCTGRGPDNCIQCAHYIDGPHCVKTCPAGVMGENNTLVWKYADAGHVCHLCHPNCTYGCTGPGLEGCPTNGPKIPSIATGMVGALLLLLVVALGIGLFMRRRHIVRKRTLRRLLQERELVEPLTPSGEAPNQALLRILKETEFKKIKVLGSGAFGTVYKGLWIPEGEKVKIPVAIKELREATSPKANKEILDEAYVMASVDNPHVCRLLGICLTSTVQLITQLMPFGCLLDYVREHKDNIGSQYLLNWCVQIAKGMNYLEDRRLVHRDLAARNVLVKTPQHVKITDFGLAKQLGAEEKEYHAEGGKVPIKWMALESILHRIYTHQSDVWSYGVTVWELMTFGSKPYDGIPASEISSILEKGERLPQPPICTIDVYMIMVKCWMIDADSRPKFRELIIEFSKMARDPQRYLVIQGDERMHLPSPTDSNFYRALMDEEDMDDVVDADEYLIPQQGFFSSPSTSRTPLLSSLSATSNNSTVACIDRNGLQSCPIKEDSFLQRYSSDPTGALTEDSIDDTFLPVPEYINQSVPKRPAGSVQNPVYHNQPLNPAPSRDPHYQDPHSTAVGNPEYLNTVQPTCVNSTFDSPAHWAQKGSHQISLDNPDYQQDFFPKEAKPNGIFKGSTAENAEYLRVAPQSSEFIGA
Source text: as §1

EGFRWT = EGFRWT (Homo sapiens, UniProt P00533); test: In vitro enzymatic activity assay (Z'-LYTE), wild type EGFR; assay type: biochemical; conditions: Z'-LYTE FRET peptide assay; read-out: EGFRWT kinase activity (IC50)
EGFRWT, sequence (P00533 25-1210): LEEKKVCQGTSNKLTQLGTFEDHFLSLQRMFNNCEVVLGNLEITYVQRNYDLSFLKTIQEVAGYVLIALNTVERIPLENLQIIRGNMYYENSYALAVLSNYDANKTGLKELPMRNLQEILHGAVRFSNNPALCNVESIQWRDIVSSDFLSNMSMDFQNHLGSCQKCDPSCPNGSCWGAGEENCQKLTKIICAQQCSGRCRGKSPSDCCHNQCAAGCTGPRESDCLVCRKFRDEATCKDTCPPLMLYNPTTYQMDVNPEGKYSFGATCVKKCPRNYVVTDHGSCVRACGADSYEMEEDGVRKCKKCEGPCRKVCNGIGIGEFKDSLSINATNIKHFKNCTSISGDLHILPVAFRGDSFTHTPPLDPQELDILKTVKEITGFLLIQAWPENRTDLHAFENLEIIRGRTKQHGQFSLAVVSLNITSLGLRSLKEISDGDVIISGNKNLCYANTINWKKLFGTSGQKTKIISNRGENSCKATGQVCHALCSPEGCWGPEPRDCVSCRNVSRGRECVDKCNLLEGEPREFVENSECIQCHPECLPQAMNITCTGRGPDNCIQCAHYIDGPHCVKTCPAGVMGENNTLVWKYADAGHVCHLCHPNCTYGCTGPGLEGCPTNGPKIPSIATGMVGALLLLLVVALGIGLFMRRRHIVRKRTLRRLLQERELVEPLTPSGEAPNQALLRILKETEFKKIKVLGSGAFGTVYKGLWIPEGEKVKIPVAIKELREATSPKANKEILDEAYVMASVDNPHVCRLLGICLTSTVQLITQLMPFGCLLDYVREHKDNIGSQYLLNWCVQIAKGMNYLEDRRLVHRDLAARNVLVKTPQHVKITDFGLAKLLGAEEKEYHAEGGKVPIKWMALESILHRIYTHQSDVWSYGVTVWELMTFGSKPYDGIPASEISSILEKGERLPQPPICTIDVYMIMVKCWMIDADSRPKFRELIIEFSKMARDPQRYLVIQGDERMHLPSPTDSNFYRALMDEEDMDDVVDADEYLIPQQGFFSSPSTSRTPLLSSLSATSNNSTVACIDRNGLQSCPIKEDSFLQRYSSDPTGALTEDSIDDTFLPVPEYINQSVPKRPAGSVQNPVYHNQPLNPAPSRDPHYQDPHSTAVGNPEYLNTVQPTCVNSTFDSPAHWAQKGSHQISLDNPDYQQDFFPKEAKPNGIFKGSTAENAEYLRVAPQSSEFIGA
Source text: as §1

EGFRL858R + T790M = EGFRL858R + T790M (Homo sapiens, UniProt P00533, L858R/T790M); test: In vitro enzymatic activity assay (Z'-LYTE), EGFR L858R + T790M; assay type: biochemical; conditions: Z'-LYTE FRET peptide assay; read-out: EGFRL858R + T790M kinase activity (IC50)
Source text: as §1

[2] = tested on: HCC827 (lung cancer cells, EGFR E746-A750 deletion); test: Cell proliferation by MTT, HCC827; assay type: cell-based; conditions: Homo sapiens, HCC827, read-out: HCC827 50% inhibitory concentration (IC50), 72 h
[3] = tested on: NCI-H820 (lung cancer cells); test: Cell proliferation by MTT, NCI-H820; assay type: cell-based; conditions: NCI-H820, read-out: NCI-H820 50% inhibitory concentration (IC50), 72 h
[4] = tested on: H1975 (lung cancer cells, EGFR L858R&T790M); test: Cell proliferation by MTT, H1975; assay type: cell-based; conditions: Homo sapiens, NCI-H1975, read-out: H1975 50% inhibitory concentration (IC50), 72 h

EGFRL858R, sequence (P00533 25-1210 L858R): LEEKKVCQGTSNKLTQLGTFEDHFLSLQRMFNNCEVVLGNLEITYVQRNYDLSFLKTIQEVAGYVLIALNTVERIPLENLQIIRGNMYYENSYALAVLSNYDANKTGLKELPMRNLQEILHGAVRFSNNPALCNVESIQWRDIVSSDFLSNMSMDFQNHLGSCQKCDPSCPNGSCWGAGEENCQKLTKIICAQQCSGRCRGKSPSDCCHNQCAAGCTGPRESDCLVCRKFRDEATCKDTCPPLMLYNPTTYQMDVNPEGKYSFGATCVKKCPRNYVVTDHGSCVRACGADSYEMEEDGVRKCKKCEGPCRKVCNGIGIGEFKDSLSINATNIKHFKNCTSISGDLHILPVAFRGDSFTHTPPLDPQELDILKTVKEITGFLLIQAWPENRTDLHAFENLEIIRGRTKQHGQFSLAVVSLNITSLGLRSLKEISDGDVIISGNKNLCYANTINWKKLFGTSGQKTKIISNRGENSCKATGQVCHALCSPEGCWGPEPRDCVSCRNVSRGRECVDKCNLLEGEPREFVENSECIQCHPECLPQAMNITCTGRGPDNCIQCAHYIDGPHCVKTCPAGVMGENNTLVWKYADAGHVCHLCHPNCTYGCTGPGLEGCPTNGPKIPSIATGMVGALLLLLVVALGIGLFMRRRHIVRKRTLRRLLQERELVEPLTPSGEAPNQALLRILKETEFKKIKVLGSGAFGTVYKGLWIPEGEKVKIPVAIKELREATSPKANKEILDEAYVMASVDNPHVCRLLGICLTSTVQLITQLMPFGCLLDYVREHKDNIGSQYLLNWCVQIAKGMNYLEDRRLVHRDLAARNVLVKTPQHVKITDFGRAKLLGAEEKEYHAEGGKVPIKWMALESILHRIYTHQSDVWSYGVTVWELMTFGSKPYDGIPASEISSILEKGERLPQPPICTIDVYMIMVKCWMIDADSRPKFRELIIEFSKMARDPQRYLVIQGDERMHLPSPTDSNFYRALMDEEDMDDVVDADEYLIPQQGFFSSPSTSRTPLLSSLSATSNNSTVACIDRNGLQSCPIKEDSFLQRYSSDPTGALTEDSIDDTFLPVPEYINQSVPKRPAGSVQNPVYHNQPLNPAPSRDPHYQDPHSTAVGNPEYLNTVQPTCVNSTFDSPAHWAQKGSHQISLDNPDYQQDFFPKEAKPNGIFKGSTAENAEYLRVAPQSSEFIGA

| IC50 (EGFRL858R) [nM] | IC50 (EGFR T790M kinase) [nM] | IC50 [1] [nM] | IC50 (EGFRL861Q) [nM] | IC50 (EGFRWT) [nM] | IC50 (EGFRL858R + T790M) [nM] | IC50 [2] [nM] | IC50 [3] [nM] | IC50 [4] [nM] | Compound |
| --- | --- | --- | --- | --- | --- | --- | --- | --- | --- |
| 10 to 100 | 10 to 100 | 21200 | 10 to 100 | 10 to 100 | 10 to 100 | 159 | > 100000 | 159 | C=CC(=O)Nc1cccc(N2C(=O)N(C)Cc3cnc(Nc4ccc(N5CCOCC5)cc4OC)nc32)c1 [C-EGF08, N-(3-(7-(2-methoxy-4-morpholinophenylamino)-3-methyl-2-oxo-3,4-dihydropyrimido[4,5-d]pyrimidin-1(2H)-yl)phenyl)acrylamide] |
| 10 to 100 | 10 to 100 | 10700 | ≤ 10 | 10 to 100 | 10 to 100 | 212 | > 100000 | 379 | C=CC(=O)Nc1cccc(N2C(=O)N(C)Cc3cnc(Nc4ccc(N5CCSCC5)cc4OC)nc32)c1 [C-EGF09, N-(3-(7-(2-methoxy-4-thiomorpholinophenylamino)-3-methyl-2-oxo-3,4-dihydropyrimido[4,5-d]pyrimidin-1(2H)-yl)phenyl)acrylamide] |
| 10 to 100 | ≤ 10 | 1580 | 10 to 100 | ≤ 10 | 10 to 100 | 28 | > 100000 | 213 | C=CC(=O)Nc1cccc(N2C(=O)N(C)Cc3cnc(Nc4ccccc4)nc32)c1 [C-EGF10, N-(3-(3-methyl-2-oxo-7-(phenylamino)-3,4-dihydropyrimido[4,5-d]pyrimidin-1(2H)-yl)phenyl)acrylamide] |
| 10 to 100 | 100 to 1000 | 17700 | ≤ 10 | 10 to 100 | 10 to 100 | 310 | > 100000 | 2560 | C=CC(=O)Nc1cccc(N2C(=O)N(C)Cc3cnc(Nc4ccc(N5CCCCC5)cc4OC)nc32)c1 [C-EGF11, N-(3-(7-(2-methoxy-4-(piperidin-1-yl)phenylamino)-3-methyl-2-oxo-3,4-dihydropyrimido[4,5-d]pyrimidin-1(2H)-yl)phenyl)acrylamide] |
| 10 to 100 | 100 to 1000 | 8160 | ≤ 10 | 10 to 100 | 10 to 100 | 409 | 35600 | 1530 | C=CC(=O)Nc1cccc(N2C(=O)N(C)Cc3cnc(Nc4ccc(N5CCCC5)cc4OC)nc32)c1 [C-EGF12, N-(3-(7-(2-methoxy-4-(pyrrolidin-1-yl)phenylamino)-3-methyl-2-oxo-3,4-dihydropyrimido[4,5-d]pyrimidin-1(2H)-yl)phenyl)acrylamide] |
| ≤ 10 | ≤ 10 | > 100000 | ≤ 10 | ≤ 10 | ≤ 10 | 198 | > 100000 | 568 | C=CC(=O)Nc1cccc(N2C(=O)N(C)Cc3cnc(Nc4ccc(N5CCC(N(C)C)CC5)cc4OC)nc32)c1 [C-EGF13, N-(3-(7-(4-(4-(dimethylamino)piperidin-1-yl)-2-methoxyphenylamino)-3-methyl-2-oxo-3,4-dihydropyrimido[4,5-d]pyrimidin-1(2H)-yl)phenyl)acrylamide] |
| ≤ 10 | 10 to 100 | > 100000 | ≤ 10 | ≤ 10 | 10 to 100 | 188 | > 100000 | 1220 | C=CC(=O)Nc1cccc(N2C(=O)N(C)Cc3cnc(Nc4ccc(N5CCC(N6CCN(C)CC6)CC5)cc4OC)nc32)c1 [C-EGF14, N-(3-(7-(2-methoxy-4-(4-(4-methylpiperazin-1-yl)piperidin-1-yl)phenylamino)-3-methyl-2-oxo-3,4-dihydropyrimido[4,5-d]pyrimidin-1(2H)-yl)phenyl)acrylamide] |
| ≤ 10 | ≤ 10 | 11100 | ≤ 10 | ≤ 10 | ≤ 10 | 62 | > 100000 | 710 | C=CC(=O)Nc1cccc(N2C(=O)N(C)Cc3cnc(Nc4ccc(N5CCCN(C)CC5)cc4OC)nc32)c1 [C-EGF17, N-(3-(7-(2-methoxy-4-(4-methyl-1,4-diazepan-1-yl)phenylamino)-3-methyl-2-oxo-3,4-dihydropyrimido[4,5-d]pyrimidin-1(2H)-yl)phenyl)acrylamide] |
| ≥ 10000 | ≥ 10000 | > 100000 | ≥ 1000 | 1000 to 10000 | 1000 to 10000 | > 100000 | 4850 | > 100000 | C=CC(=O)Nc1cccc(N2C(=O)N(C)Cc3cnc(Nc4ccc(N5CCN(C)CC5)cc4F)nc32)c1 [C-EGF18, N-(3-(7-(2-fluoro-4-(4-methylpiperazin-1-yl)phenylamino)-3-methyl-2-oxo-3,4-dihydropyrimido[4,5-d]pyrimidin-1(2H)-yl)phenyl)acrylamide] |
| ≥ 10000 | ≥ 10000 | > 100000 | 100 to 1000 | ≥ 10000 | 1000 to 10000 | > 100000 | 95700 | 12100 | C=CC(=O)Nc1cccc(N2C(=O)N(C)Cc3cnc(N4CCN(C)CC4)nc32)c1 [C-EGF19, N-(3-(3-methyl-7-(4-methylpiperazin-1-yl)-2-oxo-3,4-dihydropyrimido[4,5-d]pyrimidin-1(2H)-yl)phenyl)acrylamide] |
| 100 to 1000 | ≥ 10000 | > 100000 | 1000 to 10000 | 100 to 1000 | 100 to 1000 | 11900 | > 100000 | 22500 | C=CC(=O)Nc1cccc(N2C(=O)N(C)Cc3cnc(NC)nc32)c1 [C-EGF21, N-(3-(3-methyl-7-(methylamino)-2-oxo-3,4-dihydropyrimido[4,5-d]pyrimidin-1 (2H)-yl)phenyl)acrylamide] |
| ≤ 10 | 10 to 100 | 24900 | ≤ 10 | ≤ 10 | 10 to 100 | 495 | > 100000 | 1070 | C=CC(=O)Nc1cccc(N2C(=O)N(C)Cc3cnc(Nc4ccc(OCCOC)cc4OC)nc32)c1 [C-EGF22, N-(3-(7-(2-methoxy-4-(2-methoxyethoxy)phenylamino)-3-methyl-2-oxo-3,4-dihydropyrimido[4,5-d]pyrimidin-1(2H)-yl)phenyl)acrylamide] |
| ≤ 10 | 10 to 100 | 28200 | ≤ 10 | ≤ 10 | 10 to 100 | 616 | > 100000 | 3860 | C=CC(=O)Nc1cccc(N2C(=O)N(C)Cc3cnc(Nc4ccc(N(C)C)cc4OC)nc32)c1 [C-EGF23, N-(3-(7-(4-(dimethylamino)-2-methoxyphenylamino)-3-methyl-2-oxo-3,4-dihydropyrimido[4,5-d]pyrimidin-1(2H)-yl)phenyl)acrylamide] |
| ≤ 10 | ≤ 10 | 24700 | ≤ 10 | ≤ 10 | ≤ 10 | 0.2 | > 100000 | 129 | C=CC(=O)Nc1cccc(N2C(=O)N(C(C)C)Cc3cnc(Nc4ccc(N5CCN(C)CC5)cc4OC)nc32)c1 [C-EGF24, N-(3-(3-isopropyl-7-(2-methoxy-4-(4-methylpiperazin-1-yl)phenylamino)-2-oxo-3,4-dihydropyrimido[4,5-d]pyrimidin-1(2H)-yl)phenyl)acrylamide] |
| ≤ 10 | ≤ 10 | 1230 | ≤ 10 | ≤ 10 | ≤ 10 | 198 | 54600 | 501 | C=CC(=O)Nc1cccc(N2C(=O)N(c3ccc(OC)cc3)Cc3cnc(Nc4ccc(N5CCN(C)CC5)cc4OC)nc32)c1 [C-EGF25, N-(3-(7-(2-methoxy-4-(4-methylpiperazin-1-yl)phenylamino)-3-(4-methoxyphenyl)-2-oxo-3,4-dihydropyrimido[4,5-d]pyrimidin-1(2H)-yl)phenyl)acrylamide] |
| ≤ 10 | ≤ 10 | 8030 | ≤ 10 | ≤ 10 | ≤ 10 | 154 | > 100000 | 420 | C=CC(=O)Nc1cccc(N2C(=O)N(C)Cc3cnc(Nc4ccc(N5CCCCC5)cc4)nc32)c1 [Compound X002, N-(3-(3-methyl-2-oxo-7-(4-(piperidin-1-yl)phenylamino)-3,4-dihydropyrimido[4,5-d]pyrimidin-1(2H)-yl)phenyl)acrylamide] |
